Literature values in US9511011B2, “TRPV1 inhibitory peptides and composition for skin-aging protection or wrinkle improvement comprising the same” (SNU R&DB FOUNDATION, priority 2012, dated 2016).

Target: T1, TRPV1 (Homo sapiens, UniProt Q8NER1)
T1 construct: Capsaicin stimulus increases intracellular Ca^2+ level in keratinocytes, which is suppressed by capsazepine; host or cells: keratinocytes (endogenous TRPV1)
Details: keratinocytes

T1 sequence (Q8NER1 whole entry): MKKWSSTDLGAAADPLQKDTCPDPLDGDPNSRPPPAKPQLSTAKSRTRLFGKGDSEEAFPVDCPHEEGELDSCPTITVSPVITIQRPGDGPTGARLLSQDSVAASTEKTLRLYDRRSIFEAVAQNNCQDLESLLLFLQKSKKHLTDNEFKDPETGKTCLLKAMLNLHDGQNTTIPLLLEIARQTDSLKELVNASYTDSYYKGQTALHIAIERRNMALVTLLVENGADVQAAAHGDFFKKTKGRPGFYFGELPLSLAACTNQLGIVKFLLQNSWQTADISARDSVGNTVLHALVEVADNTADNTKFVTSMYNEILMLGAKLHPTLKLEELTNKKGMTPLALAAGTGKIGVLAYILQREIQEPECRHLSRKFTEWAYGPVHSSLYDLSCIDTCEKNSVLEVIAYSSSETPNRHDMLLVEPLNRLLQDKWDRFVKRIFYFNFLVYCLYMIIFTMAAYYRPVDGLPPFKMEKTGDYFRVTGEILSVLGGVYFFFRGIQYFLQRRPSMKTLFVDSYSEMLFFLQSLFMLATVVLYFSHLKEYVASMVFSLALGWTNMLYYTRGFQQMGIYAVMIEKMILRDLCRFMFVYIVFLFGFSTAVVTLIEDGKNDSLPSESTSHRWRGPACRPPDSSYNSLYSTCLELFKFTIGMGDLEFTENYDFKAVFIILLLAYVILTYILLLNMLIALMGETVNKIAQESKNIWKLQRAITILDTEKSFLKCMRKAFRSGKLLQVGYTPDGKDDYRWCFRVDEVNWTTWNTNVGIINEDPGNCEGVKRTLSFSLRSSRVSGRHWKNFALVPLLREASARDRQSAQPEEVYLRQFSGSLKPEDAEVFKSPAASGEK

intracellular Ca2+ level increased by capsaicin stimulus: suppressed
Compound: Oc1cc2c(cc1O)CN(C(=S)NCCc1ccc(Cl)cc1)CCC2 [capsazepine]
